Measurements published in patent publication US9670214B2, “Small molecule myristate inhibitors of Bcr-abl and methods of use” (DANA-FARBER CANCER INSTITUTE, INC., priority 2007, dated 2017).

Columns and labels:
[1] = system: Ba/F3 cells (IL-3 dependent murine pro-B cell line); assay: Proliferation assay (MTT), parental Ba/F3 cells; type: cell-based; details: Mus musculus, 48 h, drug concentrations 0.005-10 μM, read-out: BaF3
Description: Interleukin-3 (IL-3) dependent murine pro-B cell line, Ba/F3, and murine myeloid precursor cell line, 32D, were maintained in RPMI-1640 medium supplemented with L-Glutamine, 10% FBS and 10 U/ml recombinant murine IL-3 (Roche). Mo7e human megakarioblastic cell line was grown in RPMI-1640 medium supplemented with L-Glutamine, 20% FBS and 5 ng/ml recombinant human granulocyte macrophage cell stimulating factor (GM-CSF) (R&D Systems) or 200 ng/ml stem cell factor (SCF) (Biosource).
(§1) Cells (0.3-0.6×10^6/ml) were plated in duplicate or triplicate in 96-well plates containing increasing drug concentrations (0.005-10 μM). After incubation at 37° C. in 5% CO2 for 48 h, the effect of the compounds on cell viability was determined by MTT (Promega) colorimetric dye reduction method. Inhibition of cell proliferation was calculated as a percentage of growth of DMSO treated cells, and IC50 values were determined with Microsoft Excel XLfit3.

[2] = biological target: Bcr-abl (Ba/F3.p210 cells) (Homo sapiens, UniProt P00519); assay: Proliferation assay (MTT), wild type Bcr-abl expressing Ba/F3 cells; type: cell-based, murine; details: 48 h, drug concentrations 0.005-10 μM
Excerpt: (§2) Wild type Bcr-abl expressing 32D (32D.p210) and Ba/F3 (Ba/F3.p210) cells, and mutant Bcr-abl expressing cell lines Ba/F3.p210^G250E, Ba/F3.p210^E255V, Ba/F3.p210^T315I, Ba/F3.p210^F317L and Ba/F3.p210^M351T, as well as Ba/F3 cells transformed with Flt-3-ITD kinase. Additional assays included Ba/F3 cells expressing the fusion protein kinases TEL-PDGFRβ, TEL-JAK1, NPM-ALK, TEL-cKit, Tel-Bmx, Tel-FGR3, Tel-Lck and Ba/F3.TPR-met cells. All the above cell lines were maintained in RPMI-1640 medium with L-Glutamine, 10% FBS and 1 mg/ml geneticin (Gibco).
as §1

[3] = biological target: Bcr-abl T315I (Ba/F3.p210^T315I cells) (Homo sapiens, UniProt P00519, T315I, cells depend on it); assay: Proliferation assay (MTT), T315I mutant Bcr-abl expressing Ba/F3 cells; type: cell-based, murine; details: 48 h, drug concentrations 0.005-10 μM
Excerpt: as §2, §1

Row | SMILES | IC50 [1] [µM] | IC50 [2] [µM] | IC50 [3] [µM]
1 | FC(F)(F)Oc1ccc(Nc2ncnc3[nH]ccc23)cc1 | > 10 | > 10 | > 10
2 | Cn1ccc2c(Nc3ccc(OC(F)(F)F)cc3)ncnc21 | > 10 | 6.89 | > 10
3 | FC(F)(F)Oc1ccc(Nc2ncnc3c2ccn3CCN2CCOCC2)cc1 | > 10 | 0.38 | 4.27
4 | NC(=O)CCn1ccc2c(Nc3ccc(OC(F)(F)F)cc3)ncnc21 | > 10 | 0.49 | 6.42
5 | CCNC(=O)CCn1ccc2c(Nc3ccc(OC(F)(F)F)cc3)ncnc21 | > 10 | 2.42 | 9.29
6 | O=C(CCn1ccc2c(Nc3ccc(OC(F)(F)F)cc3)ncnc21)NCCN1CCOCC1 | > 10 | 1.06 | 3.14
7 | CC(C)C(CCO)NC(=O)CCn1ccc2c(Nc3ccc(OC(F)(F)F)cc3)ncnc21 (stereo not drawn) | > 10 | 0.86 | 2.07
8 | CCOC(=O)c1cc2c(Nc3ccc(OC(F)(F)F)cc3)ncnc2n1C | > 10 | 1.5 | > 10
9 | Cn1c(C(=O)N2CCC(C(N)=O)CC2)cc2c(Nc3ccc(OC(F)(F)F)cc3)ncnc21 | > 10 | 0.82 | > 10
10 | Cn1c(C(=O)N2CCCC(C(N)=O)C2)cc2c(Nc3ccc(OC(F)(F)F)cc3)ncnc21 (stereo not drawn) | > 10 | 1.98 | > 10
11 | Cn1c(CO)cc2c(Nc3ccc(OC(F)(F)F)cc3)ncnc21 | > 10 | 0.245 | > 10
12 | Cn1c(C(N)=O)cc2c(Nc3ccc(OC(F)(F)F)cc3)ncnc21 | > 10 | 0.62 | > 10
13 | CCN1CCCC1NC(=O)c1cc2c(Nc3ccc(OC(F)(F)F)cc3)ncnc2n1C (stereo not drawn) | 5.12 | 2.95 | 8.47
14 | Cn1c(C(=O)NC(=N)N)cc2c(Nc3ccc(OC(F)(F)F)cc3)ncnc21 | > 10 | > 10 | > 10
15 | CCN(CC)CCCC(C)NC(=O)c1cc2c(Nc3ccc(OC(F)(F)F)cc3)ncnc2n1C (stereo not drawn) | 4.12 | 1.18 | 4
16 | COC(=O)c1ccc2c(Nc3ccc(OC(F)(F)F)cc3)ncnc2c1 | 6.62 | 0.214 | 1.91
17 | OCc1ccc2c(Nc3ccc(OC(F)(F)F)cc3)ncnc2c1 | > 10 | 0.508 | > 10
18 | CCN(CC)Cc1ccc2c(Nc3ccc(OC(F)(F)F)cc3)ncnc2c1 | > 10 | 2.04 | > 10

Row | SMILES | IC50 [1] [µM] | IC50 [2] [µM] | IC50 [3] [µM]
19 | CCN(CC)C(=O)c1ccc2c(Nc3ccc(OC(F)(F)F)cc3)ncnc2c1 | > 10 | 0.742 | 3.17
20 | O=C(c1ccoc1)N1CCN(C(=O)c2ccc3c(Nc4ccc(OC(F)(F)F)cc4)ncnc3c2)CC1 | > 10 | 2.04 | 3.9
21 | O=C(Nc1cccc(C(F)(F)F)c1)c1ccc2c(Nc3ccc(OC(F)(F)F)cc3)ncnc2c1 | 4.5 | 1.28 | 1.56
22 | COCCCNC(=O)c1ccc2c(Nc3ccc(OC(F)(F)F)cc3)ncnc2c1 | > 10 | 4.09 | > 10
23 | CCNNC(=O)c1ccc2c(Nc3ccc(OC(F)(F)F)cc3)ncnc2c1 | 6.51 | 1.88 | 6.3
24 | COC1CCN(C(=O)c2ccc3c(Nc4ccc(OC(F)(F)F)cc4)ncnc3c2)CC1 | > 10 | 0.639 | 0.895
25 | O=C(c1ccc2c(Nc3ccc(OC(F)(F)F)cc3)ncnc2c1)N1CCC(O)C1 (stereo not drawn) | > 10 | 1.17 | > 10
26 | O=C(c1ccc2c(Nc3ccc(OC(F)(F)F)cc3)ncnc2c1)N1CCCC1CO (stereo not drawn) | > 10 | 1.65 | > 10
27 | CN(CCO)C(=O)c1ccc2c(Nc3ccc(OC(F)(F)F)cc3)ncnc2c1 | > 10 | 2.66 | > 10
28 | CN1CCC(N(C)C(=O)c2ccc3c(Nc4ccc(OC(F)(F)F)cc4)ncnc3c2)CC1 | 5.99 | 0.689 | 5
29 | Cc1ccc(S(=O)(=O)NC(=O)c2ccc3c(Nc4ccc(OC(F)(F)F)cc4)ncnc3c2)cc1 | > 10 | > 10 | > 10
30 | CC(C)(C)S(=O)(=O)NC(=O)c1ccc2c(Nc3ccc(OC(F)(F)F)cc3)ncnc2c1 | > 10 | > 10 | > 10
31 | CC1CN(C(=O)c2ccc3c(Nc4ccc(OC(F)(F)F)cc4)ncnc3c2)CC(C)N1 (stereo not drawn) | 7.62 | 2.14 | > 10
32 | CNCCN(C)C(=O)c1ccc2c(Nc3ccc(OC(F)(F)F)cc3)ncnc2c1 | > 10 | 5.98 | > 10
33 | O=C(NCCO)c1ccc2c(Nc3ccc(OC(F)(F)F)cc3)ncnc2c1 | > 10 | 2.15 | > 10
34 | O=C(c1ccc2c(Nc3ccc(OC(F)(F)F)cc3)ncnc2c1)N1CCC2(CC1)C(=O)NCN2c1ccccc1 | 6.89 | 1.48 | 8.32
35 | NC(=O)C1CCCN(C(=O)c2ccc3c(Nc4ccc(OC(F)(F)F)cc4)ncnc3c2)C1 (stereo not drawn) | > 10 | 3.09 | > 10
36 | CCOC(=O)C1CCCN(C(=O)c2ccc3c(Nc4ccc(OC(F)(F)F)cc4)ncnc3c2)C1 (stereo not drawn) | 8.84 | 5.55 | > 10
